This is an account of results in patent US5256686A, “Phenylalkan(en)oic acid” (Ono Pharmaceutical Co., Ltd., priority 1989, dated 1993).

This assay addresses T1, human PMNL LTB4 receptor (Homo sapiens, UniProt Q15722).
T1 construct: endogenous in cells; host or cells: human polymorphonuclear leukocytes (PMNL), intact cells
The assay is described as follows: Binding affinity of 3H-LTB4 antagonist to human PMNL LTB4 receptor (inhibition of specific 3H-LTB4 binding). The following applies: 1 nM 3H-LTB4, human PMNLs, 4° C., 20 min. How it is done:
Human PMNLS (1×10^7 cells) were incubated with 1 nM ^3 H-LTB4 in Hanks balanced salt solution (1 ml) at 4° C. for 20 min. in the presence or absence of increasing concentrations of unlabeled LTB4 or various compounds. Free ^3 H-LTB4 was separated from PMNLs-bound ligands by vacuum filteration through Whatman GF/B or C glass fiber filters. The filters were then washed rapidly 4 times with 2.5 ml of the ice-cold phosphate buffered saline. The radioactivity retained in the filter was determined by liquid scintillation counting. Specific binding was defined as the difference between total binding and binding in the presence of 3 μM LTB4 (nonspecific binding). The inhibitory effect of specific ^3 H-LTB4 binding was calculated from the following equation.
The percentage of inhibition (%)=100-(B1 /B0 ×100)
B1 : specific ^3 H-LTB4 binding in presence of antagonist
B0 : specific ^3 H-LTB4 binding in absence of antagonist

T1 sequence (Q15722 whole entry): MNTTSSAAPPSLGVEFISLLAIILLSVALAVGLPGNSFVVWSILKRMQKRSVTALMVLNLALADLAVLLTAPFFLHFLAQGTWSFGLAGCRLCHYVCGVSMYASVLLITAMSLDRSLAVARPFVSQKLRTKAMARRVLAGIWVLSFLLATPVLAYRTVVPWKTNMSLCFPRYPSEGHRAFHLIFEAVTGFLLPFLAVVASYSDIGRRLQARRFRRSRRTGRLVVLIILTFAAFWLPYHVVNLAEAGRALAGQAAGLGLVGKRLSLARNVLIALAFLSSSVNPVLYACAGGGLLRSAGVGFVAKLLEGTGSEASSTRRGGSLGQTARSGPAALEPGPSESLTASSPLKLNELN

As to `CCCCCCCCCCCCOc1ccc(NC(=O)CCCC(=O)N(C)C)cc1CCC(=O)O` [1 (c), 3-[1-n-dodecyloxy-4-(4-dimethylaminocarbonylbutanamido)benzen-2-yl]propionic acid], the IC50 turned out to be 1000 nM.

The compound `CCCOc1ccc(/C=C/CCCCOc2ccc(NC(=O)CCCC(=O)N(C)C)cc2CCC(=O)O)cc1` [1 (e), 3-[1-[6-(4-n-propoxyphenyl)hex-5E-enyl]oxy-4-(4-dimethylaminocarbonylbutanamido)benzen-2-yl]propionic acid] showed an IC50 of 80 nM.

`C=CCOc1ccc(/C=C/CCCCOc2ccc(NC(=O)CCCC(=O)N(C)C)cc2CCC(=O)O)cc1` [1 (f), 3-[1-[6-[4-(2-propenyl)oxyphenyl]hex-5E-enyl]oxy-4-(4-dimethylaminocarbonylbutanamido)benzen-2-yl]propionic acid] had an IC50 of 50 nM.

The compound `CCCCCOc1ccc(/C=C/CCCCOc2ccc(NC(=O)CCCC(=O)N(C)C)cc2CCC(=O)O)cc1` [1 (i), 3-[1-[6-(4-n-pentyloxyphenyl)hex-5E-enyl]oxy-4-(4-dimethylaminocarbonylbutanamido)benzen-2-yl]propionic acid] came in with a 50% inhibitory concentration (IC50) of 400 nM. This IC50 is about 8-fold higher than that of the compound before.

Regarding `COc1ccc(CCCCCCOc2ccc(NC(=O)CCCC(=O)N(C)C)cc2CCC(=O)O)cc1` [1 (j), 3-[1-[6-(4-methoxyphenyl)-n-hexyl]oxy-4-(4-dimethylaminocarbonylbutanamido)benzen-2-yl]propionic acid], the IC50 worked out at 200 nM.

For the compound `COc1cccc(/C=C/CCCCOc2ccc(NC(=O)CCCC(=O)N(C)C)cc2CCC(=O)O)c1` [1 (m), 3-[1-[6-(3-methoxyphenyl)hex-5E-enyl]oxy-4-(4-dimethylaminocarbonylbutanamido)benzen-2-yl]propionic acid], the IC50 came out at 490 nM.

In turn, `COc1ccc(/C=C/CCCCOc2ccc(NC(=O)CCCC(=O)N3CCc4ccccc43)cc2CCC(=O)O)cc1` [1 (n), 3-[1-[6-(4-methoxyphenyl)hex-5E-enyl]oxy-4-[4-(1-indolinyl)carbonylbutanamido]benzen-2-yl]propionic acid] had an IC50 of 70 nM. This IC50 is about 7-fold lower than that of the compound before.

As to `CSc1ccc(/C=C/CCCCOc2ccc(NC(=O)CCCC(=O)N(C)C)cc2CCC(=O)O)cc1` [1 (q), 3-[1-[6-(4-methylthiophenyl)hex-5E-enyl]oxy-4-(4-dimethylaminocarbonylbutanamido)benzen-2-yl]propionic acid], the IC50 is 50 nM.

The compound `COc1ccc(/C=C/CCCCOc2ccc(NC(=O)CCCC(=O)N(C)C)cc2CCC(=O)O)cc1OC` [1 (r), 3-[1-[6-(3,4-dimethoxyphenyl)hex-5E-enyl]oxy-4-(4-dimethylaminocarbonylbutanamido)benzen-2-yl]propionic acid] yielded an IC50 of 1100 nM.

As to `Cc1ccc(/C=C/CCCCOc2ccc(NC(=O)CCCC(=O)N(C)C)cc2CCC(=O)O)cc1` [1 (s), 3-[1-[6-(4-methylphenyl)hex-5E-enyl]oxy-4-(4-dimethylaminocarbonylbutanamido)benzen-2-yl]propionic acid], the concentration for half-maximal inhibition (IC50) is 170 nM.

Turning to `CN(C)C(=O)CCCC(=O)Nc1ccc(OCCCC/C=C/c2ccc(Cl)cc2)c(CCC(=O)O)c1` [1 (t), 3-[1-[6-(4-chlorophenyl)hex-5E-enyl]oxy-4-(4-dimethylaminocarbonylbutanamido)benzen-2-yl]propionic acid], the IC50 worked out at 220 nM. The IC50 values of the last two compounds are within 1.5-fold of each other.

`COc1ccc(/C=C/CCCCOc2ccc(NC(=O)c3cccc(C(=O)N(C)C)c3)cc2CCC(=O)O)cc1` [1 (u), 3-[1-[6-(4-methoxyphenyl)hex-5E-enyl]oxy-4-(3-dimethylaminocarbonylbenzamido)benzen-2-yl]propionic acid] registered an IC50 of 80 nM.

In turn, `COc1ccc(/C=C/CCCCOc2ccc(NC(=O)CCCC(=O)O)cc2/C=C/C(=O)O)cc1` [2 (a), 3-[1-[6-(4-methoxyphenyl)hex-5E-enyl]oxy-4-(4-carboxylbutanamido)benzen-2-yl]-E-acrylic acid] displayed a 50% inhibitory concentration (IC50) of 200 nM.

Compound `COc1ccc(/C=C/CCCCOc2ccc(NC(=O)c3ccccc3)cc2CCC(=O)O)cc1` [3 (a), 3-[1-[6-(4-methxoyphenyl)hex-5E-enyl]oxy-4-benzamidobenzen-2-yl]propionic acid] yielded a 50% inhibitory concentration (IC50) of 200 nM. In other words, the sub-micromolar range.

The compound `COc1ccc(/C=C/CCCCOc2ccc(NC(=O)c3cccc(CO)c3)cc2CCC(=O)O)cc1` [4 (b), 3-[1-[6-(4-methoxyphenyl)hex-5E-enyl]oxy-4-(3-hydroxymethylbenzamido)benzen-2yl]propionic acid] gave a half-inhibitory concentration (IC50) of 60 nM.

Turning to `CCCCCC(O)/C=C/CCCCOc1ccc(NC(=O)CCCC(=O)N(C)C)cc1CCC(=O)O` (stereo not drawn) [5 (b), 3-[1-(5E-7-hydroxydodecenyl)oxy-4-dimethylaminocarbonylbutanamidobenzen-2-yl]propionic acid], the IC50 is 300 nM.

`COc1ccc(CCC(O)/C=C/CCCCOc2ccc(NC(=O)CCCC(=O)N(C)C)cc2CCC(=O)O)cc1` (stereo not drawn) [5 (c), 3-[1-[5E-7-hydroxy-9-(4-methoxyphenyl)nonenyl]oxy-4-dimethylaminocarbonylbutanamidobenzen-2-yl]propionic acid] registered an IC50 of 700 nM.

The compound `CN(C)C(=O)CCCC(=O)Nc1ccc(OCCCC/C=C/C(O)C2CCCCC2)c(CCC(=O)O)c1` (stereo not drawn) [5 (e), 3-[1-(5E-7-hydroxy-7-cyclohexylheptenyl)oxy-4-dimethylaminocarbonylbutanamidobenzen-2-yl]propionic acid] gave an IC50 of 350 nM. This IC50 is about 2-fold lower than that of the compound before.

For the compound `COc1ccc(/C=C/CCCCOc2ccc(NS(C)(=O)=O)cc2CCC(=O)O)cc1` [6 (b), 3-[1-[6-(4-methoxyphenyl)hex-5E-enyl]oxy-4-methylsulfonylaminobenzen-2-yl]propionic acid], the concentration for half-maximal inhibition (IC50) amounted to 30 nM.

Consider `COc1ccc(/C=C/CCCCOc2ccc(NS(=O)(=O)Cc3ccccc3)cc2CCC(=O)O)cc1` [6 (c), 3-[1-[6-(4-methoxyphenyl)hex-5E-enyl]oxy-4-benzylsulfonylaminobenzen-2-yl]propionic acid], for which the concentration for half-maximal inhibition (IC50) is 200 nM.

`COc1ccc(/C=C/CCCCOc2ccc(NS(=O)(=O)CCCC(=O)N(C)C)cc2CCC(=O)O)cc1` [7 (a), 3-[1-[6-(4-methoxyphenyl)hex-5E-enyl]oxy-4-(3-dimethylaminocarbonyl-n-propyl)sulfonylaminobenzen-2-yl]propionic acid] had an IC50 of 30 nM.

The compound `COc1ccc(/C=C/CCCCOc2ccc(N(S(=O)(=O)Cc3ccccc3)S(=O)(=O)Cc3ccccc3)cc2CCC(=O)O)cc1` [10 (c), 3-[1-[6-(4-methoxyphenyl)hex-5E-enyl]oxy-4-bis(benzylsulfonyl)aminobenzen-2-yl]propionic acid] showed a concentration for half-maximal inhibition (IC50) of 1000 nM.

Regarding `COc1ccc(/C=C/CCCCOc2ccc(N3C(=O)CCS3(=O)=O)cc2CCC(=O)O)cc1` [12 (b), 3-[1-[6-(4-methoxyphenyl)hex-5E-enyl]oxy-4-(isothiazolidin-1,1,3-trione-2-yl)benzen-2-yl]propionic acid], the IC50 is 6 nM. This IC50 is about 170-fold lower than that of the compound before.

On to `COc1ccc(CCCCCCOc2cccc(OCCCCC(=O)N(C)C)c2CCC(=O)O)cc1` [30 (b), 3-[1-[6-(4-methoxyphenyl)hexyl]oxy-3-(4-dimethylaminocarbonylbutyl)oxybenzen-2-yl]propionic acid], for which the half-maximal inhibitory concentration (IC50) was found to be 150 nM.

In turn, `COc1ccc(/C=C/CCCCOc2ccc(NC(=O)CCCC(=O)N3CCOCC3)cc2CCC(=O)O)cc1` [Example 1, 3-[1-[6-(4-methoxyphenyl)hex-5E-enyl]oxy-4-(5-oxo-5-morpholinopentanamido)benzen-2-yl]propionic acid] had an IC50 of 130 nM.

`COc1ccc(/C=C/CCCCOc2ccc(NC(=O)CCCC(=O)O)cc2CCC(=O)O)cc1` [Example 2, 3-[1-[6-(4-methoxyphenyl)hex-5E-enyl]oxy-4-(4-carboxylbutanamido)benzen-2-yl]propionic acid] registered an IC50 of 40 nM.

The compound `CCCCCCC(=O)Nc1ccc(OCCCC/C=C/c2ccc(OC)cc2)c(CCC(=O)O)c1` [Example 3, 3-[1-[6-(4-methoxyphenyl)hex-5E-enyl]oxy-4-heptanamidobenzen-2-yl]propionicacid] had an IC50 of 170 nM.

For the compound `COc1ccc(/C=C/CCCCOc2ccc(NC(=O)CCCCO)cc2CCC(=O)O)cc1` [Example 4, 3-[1-[6-(4-methoxyphenyl)hex-5E-enyl]oxy-4-(5-hydroxypentanamido)benzen-2-yl]propionic acid], the IC50 amounted to 90 nM.

With `CCCCCCCCC(O)/C=C/CCCCOc1ccc(NC(=O)CCCC(=O)N(C)C)cc1CCC(=O)O` (stereo not drawn) [Example 5, 3-[1-(5E-7-hydroxypentadecenyl)oxy-4-(4-dimethylaminocarbonylbutanamido)benzen-2-yl]propionic acid], the IC50 worked out at 20 nM.

For the compound `COc1ccc(CCCCCCOc2ccc(NS(=O)(=O)c3ccc(C)cc3)cc2CCC(=O)O)cc1` [Example 6, 3-[1-[6-(4-methoxyphenyl)hexyl]oxy-4-(4-methylphenyl)sulfonylaminobenzen-2-yl]propionic acid], the IC50 was found to be 80 nM.

Take `COc1ccc(/C=C/CCCCOc2ccc(N(C(C)=O)S(C)(=O)=O)cc2CCC(=O)O)cc1` [Example 9, 3-[1-[6-(4-methoxyphenyl)hex-5E-enyl]oxy-4-(N-acetyl-N-mesyl)aminobenzen-2-yl]propionic acid]: the IC50 came out at 10 nM.

`COc1ccc(/C=C/CCCCOc2ccc(N(S(C)(=O)=O)S(C)(=O)=O)cc2CCC(=O)O)cc1` [Example 10, 3-[1-[6-(4-methoxyphenyl)hex-5E-enyl]oxy-4-dimesylaminobenzen-2-yl]propionic acid] yielded an IC50 of 13 nM.

With `COc1ccc(/C=C/CCCCOc2ccc(N3C(=O)c4ccccc4C3=O)cc2CCC(=O)O)cc1` [Example 11, 3-[1-[6-(4-methoxyphenyl)hex-5E-enyl]oxy-4-phthalimidobenzen-2-yl]propionicacid], the half-maximal inhibitory concentration (IC50) stood at 45 nM. This IC50 lies about 3.5-fold higher than the previous one.
